Target: FXR (Homo sapiens (Human), UniProt Q96RI1)
Assay: FXR EC50 (FXR agonist activity reported with each example)
Format: cell-based

Chain of FXR (Q96RI1 262-486): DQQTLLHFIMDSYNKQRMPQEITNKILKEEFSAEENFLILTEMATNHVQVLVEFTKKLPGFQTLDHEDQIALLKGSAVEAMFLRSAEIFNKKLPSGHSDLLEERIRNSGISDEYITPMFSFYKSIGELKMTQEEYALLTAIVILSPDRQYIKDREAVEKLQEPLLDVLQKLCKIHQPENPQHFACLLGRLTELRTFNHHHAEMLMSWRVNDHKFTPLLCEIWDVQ

| SMILES | EC50 [nM] |
| --- | --- |
| O=C(O)c1ccn2c(C#CC34CCC(OCc5c(-c6c(Cl)cncc6Cl)noc5C5CC5)(CC3)CC4)cnc2c1 [Example 393] | 270 |
| O=C(O)c1cn2ccc(C#CC34CCC(OCc5c(-c6c(Cl)cncc6Cl)noc5C5CC5)(CC3)CC4)cc2n1 [Example 394] | 180 |
| O=C(O)c1cnn2ccc(C#CC34CCC(OCc5c(-c6c(Cl)cncc6Cl)noc5C5CC5)(CC3)CC4)cc12 [Example 395] | 120 |
| O=C(O)c1cccn2c(C#CC34CCC(OCc5c(-c6c(Cl)cncc6Cl)noc5C5CC5)(CC3)CC4)cnc12 [Example 397] | 48 |
| O=C(O)c1ccc(C(F)(F)F)c2nc(C34CCC(OCc5c(-c6c(Cl)cncc6Cl)noc5C5CC5)(CC3)CC4)ccc12 [Example 398] | 30 |
| Cn1cc(C#CC23CCC(OCc4c(-c5c(Cl)cncc5Cl)noc4C4CC4)(CC2)CC3)c2ccc(C(=O)O)cc21 [Example 399] | 83 |
| CC(C)Oc1cc(C#CC23CCC(OCc4c(-c5c(Cl)cncc5Cl)noc4C4CC4)(CC2)CC3)cc(C(=O)O)c1 [Example 400] | 29 |
| O=C(O)c1cc(C#CC23CCC(OCc4c(-c5c(Cl)cncc5Cl)noc4C4CC4)(CC2)CC3)cc2cn[nH]c12 [Example 401] | 74 |
| O=C(O)c1cc(OC2CCC2)c2cc(C#CC34CCC(OCc5c(-c6c(Cl)cncc6Cl)noc5C5CC5)(CC3)CC4)ccc2n1 [Example 402] | 52 |
| CCn1nc(C(=O)O)c2ccc(C34CCC(OCc5c(-c6c(Cl)cncc6Cl)noc5C5CC5)(CC3)CC4)nc21 [Example 403] | 4 |
| O=C(O)c1cc(C#CC23CCC(OCc4c(-c5c(Cl)cncc5Cl)noc4C4CC4)(CC2)CC3)cn2ccnc12 [Example 404] | 140 |
| O=C(O)c1ccc(OC2CCC2)c2nc(C34CCC(OCc5c(-c6c(Cl)cncc6Cl)noc5C5CC5)(CC3)CC4)ccc12 [Example 405] | 28 |
| O=C(O)c1ccc(OC2COC2)c2nc(C34CCC(OCc5c(-c6c(Cl)cncc6Cl)noc5C5CC5)(CC3)CC4)ccc12 [Example 406] | 54 |
| O=C(O)c1ccc(O)c2nc(C34CCC(OCc5c(-c6c(Cl)cncc6Cl)noc5C5CC5)(CC3)CC4)ccc12 [Example 407] | 19 |
| O=C(O)c1ccc(OC2CCCC2)c2nc(C34CCC(OCc5c(-c6c(Cl)cncc6Cl)noc5C5CC5)(CC3)CC4)ccc12 [Example 408] | 10 |
| O=C(O)c1ccc(N2CCCC2)c2nc(C34CCC(OCc5c(-c6c(Cl)cncc6Cl)noc5C5CC5)(CC3)CC4)ccc12 [Example 409] | 81 |
| O=C(O)c1ccc(N2CCOCC2)c2nc(C34CCC(OCc5c(-c6c(Cl)cncc6Cl)noc5C5CC5)(CC3)CC4)ccc12 [Example 410, 2-(4-((5-cyclopropyl-3-(3,5-dichloropyridin-4-yl)isoxazol-4-yl)methoxy)bicyclo[2.2.2]octan-1-yl)-8-morpholinoquinoline-5-carboxylic acid] | 36 |
| O=C(O)c1cc(C#CC23CCC(OCc4c(-c5c(Cl)cncc5Cl)noc4C4CC4)(CC2)CC3)cc2[nH]ncc12 [Example 411] | 89 |
| O=C(O)c1ccc(C#CC23CCC(OCc4c(-c5c(Cl)cncc5Cl)noc4C4CC4)(CC2)CC3)c2ncccc12 [Example 412] | 10 |
| CN1CCN(c2ccc(C(=O)O)c3ccc(C45CCC(OCc6c(-c7c(Cl)cncc7Cl)noc6C6CC6)(CC4)CC5)nc23)CC1 [Example 413] | 1500 |
| O=C(O)c1ccc(OC2CCOCC2)c2nc(C34CCC(OCc5c(-c6c(Cl)cncc6Cl)noc5C5CC5)(CC3)CC4)ccc12 [Example 414] | 29 |
| O=C(O)c1cc(C#CC23CCC(OCc4c(-c5c(Cl)cncc5Cl)noc4C4CC4)(CC2)CC3)cc2[nH]ccc12 [Example 415] | 63 |

| SMILES | EC50 [nM] |
| --- | --- |
| O=C(O)c1cc(C#CC23CCC(OCc4c(-c5c(Cl)cncc5Cl)noc4C4CC4)(CC2)CC3)c2cc[nH]c2c1 [Example 416] | 40 |
| Cc1nc(C#CC23CCC(OCc4c(-c5c(Cl)cncc5Cl)noc4C4CC4)(CC2)CC3)ccc1C(=O)O [Example 417] | 300 |
| CC(C)(O)COc1ccc(C(=O)O)c2ccc(C34CCC(OCc5c(-c6c(Cl)cncc6Cl)noc5C5CC5)(CC3)CC4)nc12 [Example 418, 2-(4-((5-cyclopropyl-3-(3,5-dichloropyridin-4-yl)isoxazol-4-yl)methoxy)bicyclo[2.2.2]octan-1-yl)-8-(2-hydroxy-2-methylpropoxy)quinoline-5-carboxylic acid] | 120 |
| O=C(O)c1ccc(C#CC23CCC(OCc4c(-c5c(Cl)cncc5Cl)noc4C4CC4)(CC2)CC3)nn1 [Example 419] | 2000 |
| O=C(O)c1cc(C(F)(F)F)cc2nc(C34CCC(OCc5c(-c6c(Cl)cncc6Cl)noc5C5CC5)(CC3)CC4)ccc12 [Example 420] | 3 |
| O=C(O)c1ccc2nc(C34CCC(OCc5c(-c6c(Cl)cncc6Cl)noc5C5CC5)(CC3)CC4)ccc2n1 [Example 421] | 53 |
| O=C(O)c1cc(C(F)(F)F)c2ccc(C34CCC(OCc5c(-c6c(Cl)cncc6Cl)noc5C5CC5)(CC3)CC4)nc2c1 [Example 422] | 360 |
| O=C(O)c1cc(C(F)(F)F)cc2nc(C34CCC(OCc5c(C(C6CC6)C6CC6)noc5C5CC5)(CC3)CC4)ccc12 [Example 423, 2-(4-((5-cyclopropyl-3-(dicyclopropylmethyl)isoxazol-4-yl)methoxy)bicyclo[2.2.2]octan-1-yl)-7-(trifluoromethyl)quinoline-5-carboxylic acid] | 67 |
| O=C(O)c1ccc(C2CC2)c2nc(C34CCC(OCc5c(C(C6CC6)C6CC6)noc5C5CC5)(CC3)CC4)ccc12 [Example 424] | 500 |
| CC1(c2noc(C3CC3)c2COC23CCC(c4ccc5c(C(=O)O)cccc5n4)(CC2)CC3)CC1(F)F (centres unmarked) [Example 425, 2-(4-((5-cyclopropyl-3-(2,2-difluoro-1-methylcyclopropyl)isoxazol-4-yl)methoxy)bicyclo[2.2.2]octan-1-yl)quinoline-5-carboxylic acid] | 3400 |
| COc1cc(Cl)c2nc(C34CCC(OCc5c(-c6c(Cl)cncc6Cl)noc5C5CC5)(CC3)CC4)ccc2c1C(=O)O [Example 426, 8-chloro-2-(4-((5-cyclopropyl-3-(3,5-dichloropyridin-4-yl)isoxazol-4-yl)methoxy)bicyclo[2.2.2]octan-1-yl)-6-methoxyquinoline-5-carboxy c acid] | 12 |
| CC(C)Oc1cc(Cl)c2nc(C34CCC(OCc5c(-c6c(Cl)cncc6Cl)noc5C5CC5)(CC3)CC4)ccc2c1C(=O)O [Example 427] | 5 |
| COc1ccc2nc(C34CCC(OCc5c(-c6c(Cl)cncc6Cl)noc5C5CC5)(CC3)CC4)ccc2c1C(=O)O [Example 428] | 120 |
| O=C(O)c1c(OC2CCC2)cc(Cl)c2nc(C34CCC(OCc5c(-c6c(Cl)cncc6Cl)noc5C5CC5)(CC3)CC4)ccc12 [Example 429] | 4 |
| O=C(O)c1cc(C(F)(F)F)c2cc(CCC34CCC(OCc5c(-c6c(Cl)cncc6Cl)noc5C5CC5)(CC3)CC4)ccc2n1 [Example 430, 6-(2-(4-((5-cyclopropyl-3-(3,5-dichloropyridin-4-yl)isoxazol-4-yl)methoxy)bicyclo[2.2.2]octan-1-yl)ethyl)-4-(trifluoromethyl)quinoline-2-carboxylic acid] | 24 |
| O=C(O)c1cccc2nc(C34CCC(OCc5c(-c6c(Cl)cncc6Cl)noc5C5CC5)(CC3)CC4)sc12 [Example 432, 2-(4-((5-cyclopropyl-3-(3,5-dichloropyridin-4-yl)isoxazol-4-yl)methoxy)bicyclo[2.2.2]octan-1-yl)benzo[d]thiazole-7-carboxylic acid] | 23 |
| O=C(O)c1cc(NC(=O)C23CCC(OCc4c(-c5c(Cl)cncc5Cl)noc4C4CC4)(CC2)CC3)cc(C(F)(F)F)c1 [Example 433, 3-(4-((5-cyclopropyl-3-(3,5-dichloropyridin-4-yl)isoxazol-4-yl)methoxy)bicyclo[2.2.2]octane-1-carboxamido)-5-(trifluoromethyl)benzoic acid] | 1300 |
| O=C(O)c1cc(C(F)(F)F)cc2nc(C34CCC(OCc5c(-c6c(Cl)cncc6Cl)noc5C5CC5)(CC3)CC4)sc12 [Example 434, 2-(4-((5-cyclopropyl-3-(3,5-dichloropyridin-4-yl)isoxazol-4-yl)methoxy)bicyclo[2.2.2]octan-1-yl)-5-(trifluoromethyl)benzo[d]thiazole-7-carboxylic acid] | 18 |
| NC(=O)c1cc(C(F)(F)F)cc2nc(C34CCC(OCc5c(-c6c(Cl)cncc6Cl)noc5C5CC5)(CC3)CC4)sc12 [Example 435, 2-(4-((5-cyclopropyl-3-(3,5-dichloropyridin-4-yl)isoxazol-4-yl)methoxy)bicyclo[2.2.2]octan-1-yl)-5-(trifluoromethyl)benzo[d]thiazole-7-carboxamide] | 460 |
| O=C(O)c1cc(-c2noc(C34CCC(/C=C/c5c(-c6c(Cl)cncc6Cl)noc5C5CC5)(CC3)CC4)n2)cc(C(F)(F)F)c1 [Example 436, (E)-3-(5-(4-(2-(5-cyclopropyl-3-(3,5-dichloropyridin-4-yl)isoxazol-4-yl)vinyl)bicyclo[2.2.2]octan-1-yl)-1,2,4-oxadiazol-3-yl)-5-(trifluoromethyl)benzoic acid] | 18 |
| COc1ccc(-c2noc(C34CCC(/C=C/c5c(-c6c(Cl)cncc6Cl)noc5C5CC5)(CC3)CC4)n2)cc1C(=O)O [Example 437, (E)-5-(5-(4-(2-(5-cyclopropyl-3-(3,5-dichloropyridin-4-yl)isoxazol-4-yl)vinyl)bicyclo[2.2.2]octan-1-yl)-1,2,4-oxadiazol-3-yl)-2-methoxybenzoic acid] | 23 |
| COc1ccc(-c2noc(C34CCC(/C=C/c5c(-c6c(Cl)cncc6Cl)noc5C5CC5)(CC3)CC4)n2)cc1C(=O)NS(C)(=O)=O [Example 438, (E)-5-(5-(4-(2-(5-cyclopropyl-3-(3,5-dichloropyridin-4-yl)isoxazol-4-yl)vinyl)bicyclo[2.2.2]octan-1-yl)-1,2,4-oxadiazol-3-yl)-2-methoxy-N-(methylsulfonyl)benzamide] | 33 |
